Results reported in US12545659B2, “IRAK degraders and uses thereof” (Kymera Therapeutics, Inc., priority 2019, dated 2026).

These compounds were tested against T1, IRAK4 (Homo sapiens, UniProt Q9NWZ3) (assay: IRAK4 MSD Degradation in OCI-LY10). Details: OCI-LY10 cells, 4 hrs incubation, read-out: IRAK4 degradation in OCI-LY10 at 4 hrs: DC50.
T1 construct: endogenous in cells; host or cells: OCI-LY10
T1 sequence (Q9NWZ3 1-460): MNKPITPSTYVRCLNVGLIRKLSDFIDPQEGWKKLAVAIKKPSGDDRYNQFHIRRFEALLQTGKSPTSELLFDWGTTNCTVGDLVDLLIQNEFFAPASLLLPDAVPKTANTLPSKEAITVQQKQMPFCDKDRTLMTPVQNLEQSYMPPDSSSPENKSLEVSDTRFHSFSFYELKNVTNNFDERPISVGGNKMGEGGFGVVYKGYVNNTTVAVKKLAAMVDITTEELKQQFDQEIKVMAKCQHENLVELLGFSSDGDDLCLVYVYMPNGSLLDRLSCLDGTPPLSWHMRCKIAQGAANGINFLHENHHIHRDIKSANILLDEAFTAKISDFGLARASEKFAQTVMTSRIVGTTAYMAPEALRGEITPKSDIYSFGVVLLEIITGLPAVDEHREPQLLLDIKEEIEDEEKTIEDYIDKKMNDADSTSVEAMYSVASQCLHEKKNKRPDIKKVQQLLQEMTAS
Type: cell-based
Procedure, shortened: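 OCI-LY10 cells treated with 8-dose, 1:3 dilution series (top final 1 to 10 μM) for 4 to 24 h at 37 °C, 5% CO2. Lysate IRAK4 quantified by MSD sandwich immunoassay (mouse 2H9 capture, rabbit Y279 detection, SULFO-TAG anti-rabbit); DC50 from three-parameter logistic fit.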

SMILES | DC50 [nM]
COc1cc2nn([C@H]3CC[C@H](CN4CCC(c5cccc6c5n(C)c(=O)n6C5CCC(=O)N(C)C5=O)CC4)CC3)cc2cc1NC(=O)c1cccc(C(F)(F)F)n1 (some centres unmarked) [I-257] | 500 to 1000
COc1cc2nn([C@H]3CC[C@H](CN4CCC5(CC4)CC(CCc4cccc6c4n(C)c(=O)n6C4CCC(=O)NC4=O)C5)CC3)cc2cc1NC(=O)c1cccc(C(F)(F)F)n1 (some centres unmarked) [I-259] | 50 to 100
Cn1c(=O)n(C2CCC(=O)NC2=O)c2ccc(C3CCN(C[C@H]4CC[C@H](n5cc6cc(NC(=O)c7cccc(C(F)(F)F)n7)c(C(F)F)cc6n5)CC4)CC3)cc21 (some centres unmarked) [I-261] | < 50
COc1cc2nn([C@H]3CC[C@H](CN4CCC(c5ccc6c(c5)n(C)c(=O)n6C5CCC(=O)NC5=O)CC4)CC3)cc2cc1NC(=O)c1cccc(C(F)(F)F)n1 (some centres unmarked) [I-262] | < 50
Cn1c(=O)n(C2CCC(=O)NC2=O)c2ccc(C3CN(C[C@H]4CC[C@H](n5cc6cc(NC(=O)c7cccc(C(F)(F)F)n7)c(C(F)F)cc6n5)CC4)C3)cc21 (some centres unmarked) [I-264] | < 50
Cn1c(=O)n(C2CCC(=O)NC2=O)c2cccc(CCC3CCN(C[C@H]4CC[C@H](n5cc6cc(NC(=O)c7cccc(C(F)(F)F)n7)c(C(C)(C)O)cc6n5)CC4)CC3)c21 (some centres unmarked) [I-265] | < 50
Cn1c(=O)n(C2CCC(=O)NC2=O)c2cccc(CCOC3CCN(C[C@H]4CC[C@H](n5cc6cc(NC(=O)c7cccc(C(F)(F)F)n7)c(C(F)F)cc6n5)CC4)CC3)c21 (some centres unmarked) [I-266] | 50 to 100
Cn1c(=O)n(C2CCC(=O)NC2=O)c2cccc(CCC3CC4(CCN(C[C@H]5CC[C@H](n6cc7cc(NC(=O)c8ccccn8)c(C(F)F)cc7n6)CC5)CC4)C3)c21 (some centres unmarked) [I-277] | < 50
CN(C[C@H]1CC[C@H](n2cc3cc(NC(=O)c4cccc(C(F)(F)F)n4)c(C(F)F)cc3n2)CC1)C1CCC2(CC1)CC(Cc1cccc3c1n(C)c(=O)n3C1CCC(=O)NC1=O)C2 (some centres unmarked) [I-278] | 50 to 100
CN(C[C@H]1CC[C@H](n2cc3cc(NC(=O)c4cccc(C(F)(F)F)n4)c(C(C)(C)O)cc3n2)CC1)C1CCN(Cc2ccc3c(c2)C(=O)N(C)C3C2CCC(=O)NC2=O)CC1 (some centres unmarked) [I-279] | < 50
Cn1c(=O)n(C2CCC(=O)NC2=O)c2cccc(N3C[C@H]4C[C@@H]3CN4C[C@H]3CC[C@H](n4cc5cc(NC(=O)c6cccc(C(F)(F)F)n6)c(C(C)(C)O)cc5n4)CC3)c21 (some centres unmarked) [I-282] | < 50
Cn1c(=O)n(C2CCC(=O)NC2=O)c2cccc(N3[C@@H]4CC[C@H]3CN(C[C@H]3CC[C@H](n5cc6cc(NC(=O)c7cccc(C(F)(F)F)n7)c(C(C)(C)O)cc6n5)CC3)C4)c21 (some centres unmarked) [I-285] | 50 to 100
COc1cc2nn([C@H]3CC[C@H](CN4CCC5(CC4)CN(Cc4cccc6c4n(C)c(=O)n6C4CCC(=O)NC4=O)CCO5)CC3)cc2cc1NC(=O)c1cccc(C(F)(F)F)n1 (some centres unmarked) [I-289] | 50 to 100

Second part, the compound after the results:

DC50 [nM] | SMILES
< 50 | COc1cc2nn([C@H]3CC[C@H](CN4CCC(c5cccc6c5n(C)c(=O)n6C5CCC(=O)NC5=O)CC4)CC3)cc2cc1NC(=O)c1cccc(C(C)(C)O)n1 (some centres unmarked) [I-258]
< 50 | COc1cc2nn([C@H]3CC[C@H](CN4CC(c5ccc6c(c5)n(C)c(=O)n6C5CCC(=O)NC5=O)C4)CC3)cc2cc1NC(=O)c1cccc(C(F)(F)F)n1 (some centres unmarked) [I-260]
< 50 | Cn1c(=O)n(C2CCC(=O)NC2=O)c2cccc(C3CCN(C[C@H]4CC[C@H](n5cc6cc(NC(=O)c7cccc(C(F)(F)F)n7)c(C(F)F)cc6n5)CC4)CC3)c21 (some centres unmarked) [I-263]
< 50 | Cn1c(=O)n(C2CCC(=O)NC2=O)c2cccc(CCOC3CCN(C[C@H]4CC[C@H](n5cc6cc(NC(=O)c7cccc(C(F)(F)F)n7)c(C(C)(C)O)cc6n5)CC4)CC3)c21 (some centres unmarked) [I-267]
< 50 | Cc1cccc(C(=O)Nc2cc3cn([C@H]4CC[C@H](CN5CCC6(CC5)CC(CCc5cccc7c5n(C)c(=O)n7C5CCC(=O)NC5=O)C6)CC4)nc3cc2C(C)(C)O)n1 (some centres unmarked) [I-276]
< 50 | COc1cc2nn([C@H]3CC[C@H](CN4C[C@H]5C[C@@H]4CN5c4cccc5c4n(C)c(=O)n5C4CCC(=O)NC4=O)CC3)cc2cc1NC(=O)c1cccc(C(F)(F)F)n1 (some centres unmarked) [I-281]
500 to 1000 | COc1cc2nn([C@H]3CC[C@H](CN(C)C4CCN(c5cccc6c5n(C)c(=O)n6C5CCC(=O)N(C)C5=O)CC4)CC3)cc2cc1NC(=O)c1cccc(C(F)(F)F)n1 (some centres unmarked) [I-283]
50 to 100 | COc1cc2nn([C@H]3CC[C@H](CN4C[C@H]5CC[C@@H](C4)N5c4cccc5c4n(C)c(=O)n5C4CCC(=O)NC4=O)CC3)cc2cc1NC(=O)c1cccc(C(F)(F)F)n1 (some centres unmarked) [I-284]
50 to 100 | COc1cc2nn([C@H]3CC[C@H](C(=O)N(C)C4CCN(Cc5cccc6c5n(C)c(=O)n6C5CCC(=O)NC5=O)CC4)CC3)cc2cc1NC(=O)c1cccc(C(F)(F)F)n1 (some centres unmarked) [I-293]
50 to 100 | COc1cc2nn([C@H]3CC[C@H](C(=O)N4CCC(c5cccc6c5n(C)c(=O)n6C5CCC(=O)NC5=O)CC4)CC3)cc2cc1NC(=O)c1cccc(C(F)(F)F)n1 (some centres unmarked) [I-295, N-[2-[4-[4-[1-(2,6-dioxo-3-piperidyl)-3-methyl-2-oxo-benzimidazol-4-yl]piperidine-1-carbonyl]cyclohexyl]-6-methoxy-indazol-5-yl]-6-(trifluoromethyl)pyridine-2-carboxamide]

Same assay, conditions: OCI-LY10 cells, 24 hrs incubation, read-out: IRAK4 degradation in OCI-LY10 at 24 hrs: DC50

SMILES | DC50 [nM]
CC(C)(O)c1cc2nn([C@H]3CC[C@H](CN4CCC5(CC4)CC(CNc4cccc6c4C(=O)N(C4CCC(=O)NC4=O)C6=O)C5)CC3)cc2cc1NC(=O)c1cccc(C(C)(C)F)n1 (some centres unmarked) [I-251] | 50 to 100
COc1cc2nn([C@H]3CC[C@H](CN4CC5(CC(CCNc6cccc7c6C(=O)N([C@@H]6CCC(=O)NC6=O)C7=O)C5)C4)CC3)cc2cc1NC(=O)c1cccc(C(C)(F)F)n1 [I-254, 6-(1,1-Difluoroethyl)-N-[2-[4-[[6-[2-[[2-[(3R)-2,6-dioxo-3-piperidyl]-1,3-dioxo-isoindolin-4-yl]amino]ethyl]-2-azaspiro[3.3]heptan-2-yl]methyl]cyclohexyl]-6-methoxy-indazol-5-yl]pyridine-2-carboxamide] | < 50
CN(CCCO[C@H]1C[C@H](Nc2cccc3c2C(=O)N(C2CCC(=O)NC2=O)C3=O)C1)C[C@@]1(C)Cc2cc(NC(=O)c3cccc(C(F)(F)F)n3)c(N3CCOCC3)cc2O1 (stereo partly drawn) [I-256, N-((2R)-2-(((3-((1r,3R)-3-((2-(2,6-Dioxopiperidin-3-yl)-1,3-dioxoisoindolin-4-yl)amino)cyclobutoxy)propyl)(methyl)amino)methyl)-2-methyl-6-morpholino-2,3-dihydrobenzofuran-5-yl)-6-(trifluoromethyl)picolinamide] | 500 to 1000
COc1cc2nn([C@H]3CC[C@H](CN(C)[C@H]4CC[C@H](CNc5cccc6c5C(=O)N(C5CCC(=O)NC5=O)C6=O)CC4)CC3)cc2cc1NC(=O)c1cccc(C)n1 (some centres unmarked) [I-268] | 50 to 100
COc1cc2nn([C@H]3CC[C@H](CN4CCC5(CC4)CC(CNc4cccc6c4C(=O)N(C4CCC(=O)NC4=O)C6=O)C5)CC3)cc2cc1NC(=O)c1ccccn1 (some centres unmarked) [I-273] | 50 to 100
COc1cc2nn([C@H]3CC[C@H](CN4CC5(CC(CNc6cccc7c6C(=O)N(C6CCC(=O)NC6=O)C7=O)C5)C4)CC3)cc2cc1NC(=O)c1cccc(C(F)(F)F)n1 (some centres unmarked) [I-274] | 50 to 100
Cn1c2cc(NC(=O)c3cccc(C(F)(F)F)n3)c(C(C)(C)O)cc2nc1[C@H]1CC[C@H](CN2CC3(CC(CCNc4cccc5c4C(=O)N(C4CCC(=O)NC4=O)C5=O)C3)C2)CC1 (some centres unmarked) [I-287] | 50 to 100
CC(C)(O)c1cc2nn([C@H]3CC[C@H](CN4CCC5(CC4)CC(Nc4cccc6c4C(=O)N(C4CCC(=O)NC4=O)C6=O)C5)CC3)cc2cc1NC(=O)c1cccc(S(F)(F)(F)(F)F)n1 (some centres unmarked) [I-291] | < 50
COc1cc2nc([C@H]3CC[C@H](CN4CC5(CCC(CNc6cccc7c6C(=O)N(C6CCC(=O)NC6=O)C7=O)CC5)C4)CC3)oc2cc1NC(=O)c1cccc(C(C)(F)F)n1 (some centres unmarked) [I-292] | 50 to 100
CC(C)(O)COc1cc2nn([C@H]3CC[C@H](CN4CC5(CC(CCNc6cccc7c6C(=O)N(C6CCC(=O)NC6=O)C7=O)C5)C4)CC3)cc2cc1NC(=O)c1cccc(C(C)(F)F)n1 (some centres unmarked) [I-296] | 50 to 100

Further lines, results first:

DC50 [nM] | SMILES
50 to 100 | CC(C)(C)c1cccc(C(=O)Nc2cc3cn([C@H]4CC[C@H](CN5CCC6(CC5)CC(Nc5cccc7c5C(=O)N(C5CCC(=O)NC5=O)C7=O)C6)CC4)nc3cc2C(C)(C)O)n1 (some centres unmarked) [I-249]
50 to 100 | CC(C)(O)c1cc2nn([C@H]3CC[C@H](CN4CCC5(CC4)CC(CCNc4cccc6c4C(=O)N(C4CCC(=O)NC4=O)C6=O)C5)CC3)cc2cc1NC(=O)c1cccc(C(C)(F)F)n1 (some centres unmarked) [I-250]
< 50 | COc1cc2nn([C@H]3CC[C@H](CN4CC5(CC(CCNc6cccc7c6C(=O)N([C@H]6CCC(=O)NC6=O)C7=O)C5)C4)CC3)cc2cc1NC(=O)c1cccc(C(C)(F)F)n1 [I-255, 6-(1,1-Difluoroethyl)-N-[2-[4-[[6-[2-[[2-[(3S)-2,6-dioxo-3-piperidyl]-1,3-dioxo-isoindolin-4-yl]amino]ethyl]-2-azaspiro[3.3]heptan-2-yl]methyl]cyclohexyl]-6-methoxy-indazol-5-yl]pyridine-2-carboxamide]
50 to 100 | COc1cc2nn([C@H]3CC[C@H](CN4CC5(CC(CCNc6cccc7c6C(=O)N(C6CCC(=O)NC6=O)C7=O)C5)C4)CC3)cc2cc1-n1ccc2ccccc2c1=O (some centres unmarked) [I-286]
50 to 100 | CN(CCCO[C@H]1C[C@H](Nc2cccc3c2C(=O)N(C2CCC(=O)NC2=O)C3=O)C1)C[C@H]1CC[C@H](n2cc3cc(NC(=O)c4cccc(S(F)(F)(F)(F)F)n4)c(C(C)(C)O)cc3n2)CC1 (some centres unmarked) [I-290]
